# Assay results from patent publication US20100298141A1, “SUBSTITUTED PYRIDINE N-OXIDE HERBICIDES” (E. I. DU PONT DE NEMOURS AND COMPANY, priority 2007, published 2010).
# What was measured:
# crabgrass = assay: Test A pre-/postemergence greenhouse test; assay type: in vivo, Digitaria sanguinalis; settings: for Crabgrass, Large plant response rating: 0 to 100 scale
# Outline: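 Pots of loam–sand soil sown with the test species are sprayed preemergence on the soil surface; emerged seedlings (1–2 leaves, 2–10 cm) are sprayed postemergence at the same time. The vehicle is a non-phytotoxic solvent mixture with surfactant. Injury is scored visually after ~10 d in greenhouse.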
# downy brome = assay: Test C pre-/postemergence test; assay type: in vivo, Bromus tectorum
# Outline: (§1)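 Test chemicals were formulated with surfactant in a non-phytotoxic solvent and sprayed both on freshly planted seeds (preemergence) and on 1- to 4-leaf plants of 2–18 cm (postemergence). Flooded-paddy pots received compound directly into 3 cm of standing water, maintained for the test.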
# catchweed bedstraw = assay: Test C pre-/postemergence test; assay type: in vivo, Galium aparine; settings: Preemergence
# Outline: as §1
# Surinam grass = assay: Test F preemergence test; assay type: in vivo, Brachiaria decumbens; settings: scale 0 to 100
# Outline: (§2)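 Test chemicals in a non-phytotoxic solvent mixture containing a surfactant were applied preemergence to sown seeds or postemergence to sugarcane plants. Treated plants and controls were held in a greenhouse for 14 to 21 days, then visually evaluated against controls.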
# large crabgrass = assay: Test F preemergence test; assay type: in vivo, Digitaria sanguinalis; settings: scale 0 to 100
# Outline: as §2
# green foxtail = assay: Test F preemergence test; assay type: in vivo, Setaria viridis; settings: scale 0 to 100
# Outline: as §2
# goosegrass = assay: Test F preemergence test; assay type: in vivo, Eleusine indica; settings: scale 0 to 100
# Outline: as §2
# johnsongrass = assay: Test F preemergence test; assay type: in vivo, Sorghum halepense; settings: scale 0 to 100
# Outline: as §2
# common ragweed = assay: Test F preemergence test; assay type: in vivo, Ambrosia elation; settings: scale 0 to 100
# Outline: as §2
# southern sandbur = assay: Test F preemergence test; assay type: in vivo, Cenchrus echinatus; settings: scale 0 to 100
# Outline: as §2
# Italian ryegrass = assay: Test F preemergence test; assay type: in vivo, Lolium multiflorum; settings: scale 0 to 100
# Outline: as §2
# itchgrass = assay: Test F preemergence test; assay type: in vivo, Rottboellia cochinchinensis; settings: scale 0 to 100
# Outline: as §2
# field bindweed = assay: Test F preemergence test; assay type: in vivo, Convolvulus arvensis; settings: scale 0 to 100
# Outline: as §2
smiles,measurement,setting,value
CC(c1c(C(F)(F)F)nn(C)c1OCC(F)(F)F)S(=O)(=O)c1cccc[n+]1[O-] (racemic) [Compound 33],"Crabgrass, Large plant response rating","crabgrass; Postemergence, 125 g ai/ha, 0 is no effect, 100 is complete control",90
same,"Crabgrass, Large plant response rating","crabgrass; Postemergence, 500 g ai/ha, 0 is no effect, 100 is complete control",90
same,"Crabgrass, Large plant response rating","crabgrass; Preemergence, 125 g ai/ha, 0 no effect, 100 complete control",90
same,"Plant response rating, Crabgrass, Large","crabgrass; Preemergence, 500 g ai/ha, 0 to 100 scale where 0 is no effect and 100 is complete control",100
same,"Bromegrass, Downy plant response rating","downy brome; 62 g ai/ha, Preemergence, scale 0 to 100",20
same,"Plant response rating, Bromegrass, Downy","downy brome; Preemergence, 31 g ai/ha, scale 0 to 100 (0 no effect, 100 complete control)",0
same,"Plant response rating (0 to 100), Bromegrass, Downy","downy brome; Preemergence, 250 g ai/ha",98
same,"Bromegrass, Downy plant response rating","downy brome; preemergence, 125 g ai/ha, scale 0 (no effect) to 100 (complete control)",70
same,Galium plant response rating,"catchweed bedstraw; 62 g ai/ha, scale 0 to 100",100
same,"Plant response rating, Galium","catchweed bedstraw; 31 g ai/ha, scale 0 to 100 (0 no effect, 100 complete control)",100
same,"Plant response rating (0 to 100), Galium",catchweed bedstraw; 250 g ai/ha,100
same,"Plant response rating, Surinam Grass","Surinam grass; 16 g ai/ha, preemergence",20
same,Surinam Grass plant response rating,"Surinam grass; 125 g ai/ha, preemergence",100
same,"Plant response rating, Surinam Grass","Surinam grass; Preemergence, 31 g ai/ha",100
same,"Plant response rating, Crabgrass, Large","large crabgrass; 16 g ai/ha, preemergence",15
same,"Crabgrass, Large plant response rating","large crabgrass; 62 g ai/ha, Preemergence",85
same,"Crabgrass, Large plant response rating","large crabgrass; 125 g ai/ha, preemergence",100
same,"Plant response rating, Crabgrass, Large","large crabgrass; Preemergence, 31 g ai/ha",35
same,"Plant response rating, Foxtail, Green","green foxtail; 16 g ai/ha, preemergence",0
same,"Foxtail, Green plant response rating","green foxtail; 62 g ai/ha, Preemergence",100
same,"Foxtail, Green plant response rating","green foxtail; 125 g ai/ha, preemergence",100
same,"Plant response rating, Foxtail, Green","green foxtail; Preemergence, 31 g ai/ha",50
same,"Plant response rating, Goosegrass","goosegrass; 16 g ai/ha, preemergence",60
same,Goosegrass plant response rating,"goosegrass; 62 g ai/ha, Preemergence",98
same,Goosegrass plant response rating,"goosegrass; 125 g ai/ha, preemergence",100
same,"Plant response rating, Goosegrass","goosegrass; Preemergence, 31 g ai/ha",95
same,"Plant response rating, Johnsongrass","johnsongrass; 16 g ai/ha, preemergence",30
same,Johnsongrass plant response rating,"johnsongrass; 62 g ai/ha, Preemergence",100
same,Johnsongrass plant response rating,"johnsongrass; 125 g ai/ha, preemergence",100
same,"Plant response rating, Johnsongrass","johnsongrass; Preemergence, 31 g ai/ha",60
same,"Plant response rating, Ragweed","common ragweed; 16 g ai/ha, preemergence",20
same,Ragweed plant response rating,"common ragweed; 125 g ai/ha, preemergence",75
same,"Plant response rating, Ragweed","common ragweed; Preemergence, 62 g ai/ha",60
same,"Plant response rating, Ragweed","common ragweed; Preemergence, 31 g ai/ha",40
same,"Plant response rating, Sandbur","southern sandbur; 16 g ai/ha, preemergence",100
same,Sandbur plant response rating,"southern sandbur; 125 g ai/ha, preemergence",100
same,"Plant response rating, Sandbur","southern sandbur; Preemergence, 62 g ai/ha",100
same,"Plant response rating, Sandbur","southern sandbur; Preemergence, 31 g ai/ha",100
same,"Plant response rating, Ryegrass, Italian","Italian ryegrass; 16 g ai/ha, preemergence",60
same,"Ryegrass, Italian plant response rating","Italian ryegrass; 125 g ai/ha, preemergence",100
same,"Plant response rating, Ryegrass, Italian","Italian ryegrass; Preemergence, 62 g ai/ha",100
same,"Plant response rating, Ryegrass, Italian","Italian ryegrass; Preemergence, 31 g ai/ha",100
same,"Plant response rating, Itchgrass","itchgrass; 16 g ai/ha, preemergence",25
same,Itchgrass plant response rating,"itchgrass; 62 g ai/ha, Preemergence",80
same,Itchgrass plant response rating,"itchgrass; 125 g ai/ha, preemergence",100
same,"Plant response rating, Itchgrass","itchgrass; Preemergence, 31 g ai/ha",40
same,"Plant response rating, Field Bindweed","field bindweed; 16 g ai/ha, preemergence",0
same,Field Bindweed plant response rating,"field bindweed; 62 g ai/ha, Preemergence",50
same,Field Bindweed plant response rating,"field bindweed; 125 g ai/ha, preemergence",60
same,"Plant response rating, Field Bindweed","field bindweed; Preemergence, 31 g ai/ha",0
